Experimental data taken from PubChem BioAssay (NCI).
“And” between values parts separate entries of the source, which are not always exact repeats. Equal values may be shown once.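 These data come from cells grown in 96-well plates and exposed to compound for 48 hours at five concentrations. The concentration for 50% growth inhibition is given as GI50. Definition used: TGI = concentration required for complete inhibition of growth.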

Key:
Assay in all cases: NCI anticancer screen, dose series, 48 h
CAKI-1 renal = system: CAKI-1 renal
CCRF-CEM leukemia = system: CCRF-CEM leukemia
HCC-2998 colon = system: HCC-2998 colon
HCT-116 colon = system: HCT-116 colon
MOLT-4 leukemia = system: MOLT-4 leukemia
NCI-H460 lung = system: NCI-H460 lung
UO-31 renal = system: UO-31 renal
NCI/ADR-RES ovarian = system: NCI/ADR-RES ovarian
MDA-MB-435 = system: MDA-MB-435
T-47D breast = system: T-47D breast

SMILES	TGI (CAKI-1 renal) [µM]	TGI (CCRF-CEM leukemia) [µM]	TGI (HCC-2998 colon) [µM]	TGI (HCT-116 colon) [µM]	TGI (MOLT-4 leukemia) [µM]	TGI (NCI-H460 lung) [µM]	TGI (UO-31 renal) [µM]	GI50 (CAKI-1 renal)	GI50 (CCRF-CEM leukemia) [µM]	GI50 (HCC-2998 colon) [µM]	GI50 (HCT-116 colon) [µM]	GI50 (MOLT-4 leukemia)	GI50 (NCI-H460 lung)	GI50 (NCI/ADR-RES ovarian)	TGI (NCI/ADR-RES ovarian) [µM]	GI50 (UO-31 renal)	TGI (MDA-MB-435) [µM]	TGI (T-47D breast) [µM]	GI50 (T-47D breast) [µM]
O=C(/C=C/c1ccc([N+](=O)[O-])o1)N1CCN(Cc2ccccc2)CC1	21.7	27.4	29.3	22.7	38.7	29.8	31.3	–	–	–	–	–	–	–	–	–	–	–	–
COc1ccc(-c2onc(-c3ccc([N+](=O)[O-])cc3)c2C2=NCCN2)cc1	> 100	> 100	> 100	> 100	> 100	> 100	> 100	–	–	–	–	–	–	–	–	–	–	–	–
CCNC(=O)CCN(C(=O)O)S(=O)(=O)c1ccc(NC(=O)c2ccccc2)cc1	> 100	> 100	> 100	> 100	> 100	> 100	> 100	–	–	–	–	–	–	–	–	–	–	–	–
COc1cc(OC)c(/C=C/S(=O)(=O)Cc2cnc(OC)c(N)c2)c(OC)c1	> 100	> 100	> 100	> 100	> 100	> 100	> 100	< 0.0177 µM	< 0.0204	< 0.0333	< 0.0209	< 0.0218 µM	< 0.02 µM	< 0.01 µM	> 100	< 0.0251 µM	–	–	–
COc1ccc(N2C(=O)CC(Cl)C2=O)cc1 (centres undefined)	–	–	50.6	32.2	–	> 100	33	–	–	–	–	–	–	–	> 100	–	> 100	38.4	–
O=[N+]([O-])c1cccc(C2N3CCCCC3[C@@H]3c4[nH]c5ccccc5c4CCN23)c1 (some centres undefined)	> 100	41	–	–	> 100	31.1	25.6	–	–	–	–	–	–	–	–	–	–	–	–
Nc1c(C(=O)c2ccc(Cl)cc2)sc(Nc2ccccc2)c1-c1nc2ccccc2s1	–	> 100	> 100	> 100	> 89.6	> 100	> 100	–	13.9	> 100	5.04	12.3 µM	0.776 µM	3.34 µM	> 100	2.16 µM	–	> 100	1.46
COC(=O)c1s/c(=N\C(=S)N(C)C)n(-c2ccccc2)c1C(=O)OC	> 100	–	> 100	> 100	> 100	> 100	> 100	–	–	–	–	–	–	–	–	–	–	–	–
COc1cc(/C=C(\C#N)C(=O)c2ccccc2)ccc1OCc1ccccc1	> 100	> 100	> 100	> 100	> 100	–	> 100	–	–	–	–	–	–	–	–	–	–	–	–
CC(=O)CC(=O)Nc1ccc2ccccc2c1	> 100	> 100	–	> 100	> 100	> 100	–	–	–	–	–	–	–	–	> 100	–	> 100	> 100	–
COC(=O)CCc1cc(OC)c2c(c1)C(C(=O)OC)C(c1ccc(OC)c(OC)c1)O2 (centres undefined)	> 100	> 100	> 100	> 100	> 100	> 100	> 100	> 100 µM and 45.5 µM	–	–	–	65.1 µM and 7.2 µM	> 100 µM and 46.4 µM	> 100 µM and 26.8 µM	> 100	84.9 µM and 36.8 µM	–	> 100	–
